Molecular target: Beta-lactamase/penicillinase (Bacillus sp.)
Assay: Inhibitory activity against Beta-lactamase from Bacillus sp. using penicillin G as substrate

Row | Structure (SMILES) | IC50 [nM]
1 | C[C@]1(Cn2nncc2C(=O)O)[C@H](C(=O)O)C2C(=O)CC2S1(=O)=O (some centres not stated) | 1700
2 | C[C@]1(Cn2cc(N)nn2)[C@H](C(=O)O)C2C(=O)CC2S1(=O)=O (some centres not stated) | 700
3 | C[C@]1(Cn2cc([Si](C)(C)C)nn2)[C@H](C(=O)O)C2C(=O)CC2S1(=O)=O (some centres not stated) | 510
4 | COC(=O)c1nnn(C[C@@]2(C)[C@H](C(=O)O)C3C(=O)CC3S2(=O)=O)c1C(=O)OC (some centres not stated) | 300
5 | CCOC(=O)c1cn(C[C@@]2(C)[C@H](C(=O)O)C3C(=O)CC3S2(=O)=O)nn1 (some centres not stated) | 54
6 | CCOC(=O)c1cnnn1C[C@@]1(C)[C@H](C(=O)O)C2C(=O)CC2S1(=O)=O (some centres not stated) | 340
7 | COC(=O)c1cnnn1C[C@@]1(C)[C@H](C(=O)O)C2C(=O)CC2S1(=O)=O (some centres not stated) | 300

— BindingDB's records for doi:10.1021/jm00391a032 (1987)
